# From patent publication US5192672A, “Method for oxidizing hydrocarbons with a hydroxylase from a methane monooxygenase” (Amoco Corporation, priority 1991, dated 1993)
# Assays:
# [1] = molecular target: T1, hydroxylase of methane monooxygenase (Methylosinus trichosporium, UniProt P27353); test: Multiple turnover oxidation of hydrocarbon substrates using hydrogen peroxide; format: biochemical, Methylosinus trichosporium OB3b; details: H2O2 coupled
# T1 construct: The novel high activity hydroxylase of the present invention was obtained from Methylosinus trichosporium OB3b; endogenous in cells; host or cells: Methylosinus trichosporium OB3b; hydroxylase purified from the bacteria
# T1 sequence (P27353 1-526): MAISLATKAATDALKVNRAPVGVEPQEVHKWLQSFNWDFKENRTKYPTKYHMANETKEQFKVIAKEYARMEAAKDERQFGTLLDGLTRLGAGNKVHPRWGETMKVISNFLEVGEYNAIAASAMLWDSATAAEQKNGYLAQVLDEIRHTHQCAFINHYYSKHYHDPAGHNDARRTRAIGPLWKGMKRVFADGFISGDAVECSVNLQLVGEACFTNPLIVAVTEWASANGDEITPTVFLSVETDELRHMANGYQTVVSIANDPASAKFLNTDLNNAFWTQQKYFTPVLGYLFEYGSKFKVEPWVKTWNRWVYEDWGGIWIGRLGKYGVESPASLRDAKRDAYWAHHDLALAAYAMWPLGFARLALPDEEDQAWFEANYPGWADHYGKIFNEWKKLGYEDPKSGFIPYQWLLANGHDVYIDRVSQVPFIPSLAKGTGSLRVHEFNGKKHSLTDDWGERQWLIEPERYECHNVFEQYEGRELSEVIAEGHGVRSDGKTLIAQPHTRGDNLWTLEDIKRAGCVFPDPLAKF
# T1 sequence (P27354 1-394 partner): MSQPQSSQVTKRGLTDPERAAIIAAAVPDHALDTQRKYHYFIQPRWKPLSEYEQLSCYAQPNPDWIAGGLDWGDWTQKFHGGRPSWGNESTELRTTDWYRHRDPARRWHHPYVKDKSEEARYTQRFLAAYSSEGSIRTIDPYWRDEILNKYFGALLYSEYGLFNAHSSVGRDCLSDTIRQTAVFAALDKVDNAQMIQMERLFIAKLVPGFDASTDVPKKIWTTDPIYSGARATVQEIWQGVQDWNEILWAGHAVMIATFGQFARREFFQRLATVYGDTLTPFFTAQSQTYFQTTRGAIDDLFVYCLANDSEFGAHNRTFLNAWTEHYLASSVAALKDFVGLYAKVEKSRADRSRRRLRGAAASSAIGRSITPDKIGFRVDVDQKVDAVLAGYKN
# T1 sequence (P27355 1-169 partner): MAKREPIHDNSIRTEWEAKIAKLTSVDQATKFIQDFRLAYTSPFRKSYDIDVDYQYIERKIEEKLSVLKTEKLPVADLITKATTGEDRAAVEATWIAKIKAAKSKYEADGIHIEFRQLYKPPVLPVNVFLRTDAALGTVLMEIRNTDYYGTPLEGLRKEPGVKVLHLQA
# Description: . Substrates were injected into the respective reaction vials as follows: gaseous substrates (3 ml) were injected into the headspace of the reaction vial; liquid substrates (50 μls) were injected directly into the protein solution. The protein solution and substrate were allowed to equilibrate for five minutes in a water bath shaker at 30° C. Each reaction was initiated by injection of H2 O2 (20 μl of 1.0 MH2 O2 in water) to a concentration of about 100 mM H2 O2. After an appropriate period (2 minutes) a portion of the reaction mixture was removed, the reaction terminated, and the sample prepared for analysis.
# Samples were analyzed for products as follows: The benzene, substituted benzenes and pyridine samples were analyzed by High Pressure Liquid Chromatography (HPLC). The reaction in each sample was quenched by addition of 2 volumes of ethanol or 3% trichloroacetic acid which caused precipitation of the hydroxylase. The samples were centrifuged for two minutes (10,800×g) and the precipitated hydroxylase removed. A portion of each supernatant was injected into a Beckman HPLC equipped with a reverse-phase column (C18 matrix) and UV detection capability.
# All other samples were analyzed by gas chromatography. Except for the methane sample, all analyses were performed as follows: The reaction in each sample was quenched by addition of an equal volume chloroform (CHCl3) followed by vortexing for a brief period. The sample was centrifuged for two minutes (10,800×g) to separate the CHCl3 layer from the sample solution. A portion of the CHCl3 layer was injected into a Hewlett Packard 5890A gas chromatograph (100% methylsilicone column matrix) for analysis of the products.
# For the methane sample, the reaction was quenched by addition of 0.1M acid to a pH of 2.9. The resulting aqueous phase was separated from the hydroxylase using a YM30 Centricon ultrafiltration unit. The filtrate was analyzed for methanol by gas chromatography.
# Products resulting from the various substrates were identified by comparison with standard compounds.
# physchem = format: physicochemical; details: water, 30° C.
# [2] = molecular target: T2, complete methane monooxygenase (Methylosinus trichosporium, UniProt P27353); test: Polarographic assay of methane monooxygenase activity with furan as substrate; format: biochemical, Methylosinus trichosporium OB3b
# T2 construct: A soluble three-component methane monooxygenase from the Type II methanotroph Methylosinus trichosporium OB3b was purified to homogeneity; endogenous in cells; host or cells: Methylosinus trichosporium OB3b, grown on methane; components purified from cell-free extract
# T2 sequence (P27353 1-526): T1 sequence (P27353 1-526)
# T2 sequence (P27354 1-394 partner): T1 sequence (P27354 1-394 partner)
# T2 sequence (P27355 1-169 partner): T1 sequence (P27355 1-169 partner)
# Description: Enzyme Assays--Assays of bacterial cells were performed at 30° C. using cells harvested directly from the fermentor vessel. Methane oxidation was measured by gas chromatography by monitoring depletion of methane from the headspace of 30 ml reaction vials. Oxygen consumption was measured polarographically as described by Arciero et al. (J. Biol. Chem. 258, 14981-14991, 1983). The bacterial suspension was supplemented with 100 μM formaldehyde before gas chromatographic assays for conversion of propene to propene oxide in order to allow adequate regeneration of NADH by endogenous formaldehyde and formate dehydrogenases. Gas chromatographic and polarographic assays of the methane monooxygenase system were performed as described by Fox et al. (Biochem. Biophys. Res. Comm. 154, 165-170, 1988). Unless explicitly stated, the specific activity values reported for the enzyme components are those observed during the hydroxylation reaction in the presence of optimal concentrations of the other components of the methane monooxygenase. The optimal concentrations were determined by varying the concentration of one component relative to fixed concentrations of the other two components. In routine polarographic assays of methane monooxygenase activity, furan is an acceptable substrate with characteristics which facilitate the assay. […]
# [3] = 90 psi propane, up to two days, t-butyl peroxide; cited from earlier work
# methane monooxygenase = molecular target: T3, methane monooxygenase (Methylococcus capsulatus, UniProt P22869); details: Table II, purified component from Methylococcus capsulatus (Bath); cited from earlier work
# T3 construct: methane monooxygenases isolated from the Type I organism, Methylococcus capsulatus (Bath); host or cells: Methylococcus capsulatus (Bath)
# T3 sequence (P22869 whole entry, looked up): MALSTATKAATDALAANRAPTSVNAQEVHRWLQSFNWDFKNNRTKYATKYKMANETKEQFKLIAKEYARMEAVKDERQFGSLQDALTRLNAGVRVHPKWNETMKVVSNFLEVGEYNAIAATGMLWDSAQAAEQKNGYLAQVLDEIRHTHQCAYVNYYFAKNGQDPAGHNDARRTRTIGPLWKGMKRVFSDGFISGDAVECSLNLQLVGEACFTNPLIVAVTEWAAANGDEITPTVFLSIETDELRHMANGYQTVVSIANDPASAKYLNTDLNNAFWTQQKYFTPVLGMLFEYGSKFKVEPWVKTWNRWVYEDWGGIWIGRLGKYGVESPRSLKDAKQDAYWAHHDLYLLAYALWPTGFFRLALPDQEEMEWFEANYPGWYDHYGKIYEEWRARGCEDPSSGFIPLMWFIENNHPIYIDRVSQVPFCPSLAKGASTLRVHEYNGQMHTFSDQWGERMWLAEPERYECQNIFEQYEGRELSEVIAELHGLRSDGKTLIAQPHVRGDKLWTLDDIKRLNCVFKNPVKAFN
molecule,measurement,setting,value
"CC1(C)CC1 [1,1-dimethylcyclopropane]","Relative Distribution (Percent), product 1-methylcyclobutanol",[1],14%
same,"Relative Distribution (Percent), product 3-methyl-3-buten-1-01",[1],none detected
same,"Relative Distribution (Percent), product Methylcyclopropylmethanol",[1],86%
c1ccccc1 [Benzene],"Relative Distribution (Percent), product Phenol",[1],100%
CCCC [Butane],"Relative Distribution (Percent), product 1-butanol",[1],64%
same,"Relative Distribution (Percent), product 2-butanol",[1],36%
CC [Ethane],"Relative Distribution (Percent), product Ethanol",[1],100%
CC(C)C [Isobutane],"Relative Distribution (Percent), product 2-methyl-1-propanol",[1],61%
same,"Relative Distribution (Percent), product 2-methyl-2-propanol",[1],39%
CCC(C)C [Isopentane],"Relative Distribution (Percent), product 2-methyl-1-butanol",[1],25%
same,"Relative Distribution (Percent), product 2-methyl-2-butanol",[1],41%
same,"Relative Distribution (Percent), product 3-methyl-1-butanol",[1],11%
same,"Relative Distribution (Percent), product 3-methyl-2-butanol",[1],24%
C [Methane],"Relative Distribution (Percent), product Methanol","[1]; about 100 mM H2O2, 2 minutes",100%
O=[N+]([O-])c1ccccc1 [Nitrobenzene],"Relative Distribution (Percent), product m-Nitrophenol",[1],53%
same,"Relative Distribution (Percent), product o-Nitrophenol",[1],5%
same,"Relative Distribution (Percent), product p-Nitrophenol",[1],42%
CCC [Propane],"Relative Distribution (Percent), product 1-propanol",[1],15%
same,"Relative Distribution (Percent), product 2-propanol",[1],85%
C=CC [Propene],"Relative Distribution (Percent), product Propylene Oxide",[1],100%
c1ccncc1 [Pyridine],"Relative Distribution (Percent), product Pyridine-N-oxide",[1],100%
c1ccoc1 [furan],solubility,physchem,64 mM
same,Km,[2]; read-out: KM(app),20 µM
same,turnover number,[2]; relative to the hydroxylase,7.6 s⁻¹
Fe2 O(OAc)2 Cl2 (bipy)2,yield of 2-propanol from propane,[3],8.8%
"reductase from Methylococcus capsulatus (Bath): literature reductase, Colby et al. 1979",Specific activity,methane monooxygenase,6000
